From ChEMBL document CHEMBL1148938, “Quinolone alkaloids with nitric oxide production inhibitory activity from Orixa japonica” (2004)
The source made the active and inactive calls. No cut-off for these calls is given here.

Key:
RAW264.7 [1] = test: Inhibition of LPS/IFN-gamma-induced NO production in mouse RAW264.7 cells at 30 uM after 18 hrs; type: functional, cell-based
RAW264.7 [2] = test: Inhibition of LPS/IFN-gamma-induced NO production in mouse RAW264.7 cells at 10 uM after 18 hrs; type: functional; conditions: RAW264.7, 18 h
RAW264.7 [3] = test: Inhibition of LPS/IFN-gamma-induced NO production in mouse RAW264.7 cells at 50 uM after 18 hrs; type: functional; conditions: RAW264.7, 18 h

Structure (SMILES) | Activity (RAW264.7 [1]) | inhibition at 10 µM (RAW264.7 [2]) [%] | inhibition at 50 µM (RAW264.7 [3]) [%]
COc1nc2c3c(ccc2c(OC)c1C[C@H]1OC1(C)C)OCO3 | inactive | – | –
COc1c(CC(=O)C(C)C)c(=O)n(C)c2c(OC)cccc12 [ORIXALONE A] | – | 47.3 | 54.8
COc1c2ccoc2nc2c3c(ccc12)OCO3 | inactive | – | –
COc1nc2c3c(ccc2c(OC)c1CC(=O)C(C)C)OCO3 | inactive | – | –
